Source: article PMC2690590, “Functional recombinant MHC class II molecules and high-throughput peptide-binding assays” (Immunome Research, 2009)
Like-named read-outs stand apart in the source and are kept apart here. Where no end group is shown, it is not given here.

Experiments:
DR1 [1] = target: T1, DR1 (Homo sapiens, UniProt P01903+P01911, A100R/D57E/F55L/F60I/F76Y/I96L/L162R/M171V/P40L/Q125E/R42F/V115G/Y59C); test: Effects of additives on the refolding of DR1, spun column assay; format: biochemical; conditions: for Harmfull (to DR1 refolding): additive titrated in refolding buffer pH 8 without glycerol, 3 nM 125I YHA306-318, 80 nM DR1 α and β chains
[2] = target: T2, DRB3*0301 (DRA*0101/DRB3*0301) (Homo sapiens, UniProt P01903+P79483, A169T/A212P/D57E/G115V/L67V/Q178H/R103Q/R40L/Y55F); test: Direct LOCI peptide-MHC-II binding assay, DRB3*0301
T2 construct: DRA*01011-181LZFos; DRB3*03011-190LZJunBSP; made in house

[3] = target: DP401 (DPA1*0103/DPB1*0401) (Homo sapiens, UniProt P04440+P20036); test: Direct LOCI peptide-MHC-II binding assay, DP401
[4] = target: T3, DRB1*0813 (DRA*0101/DRB1*0813) (Homo sapiens, UniProt P01903+P01911, A100R/A103L/A169T/F76Y/H45Y/I96L/K41T/L162R/M171V/P40S/Q125H/Q178H/Q39Y/Q99D/R218S/R42G/S66Y/V115G/W38E); test: Direct LOCI peptide-MHC-II binding assay, DRB1*0813
T3 construct: DRA*01011-181LZFos; DRB1*08131-190LZJunBSP; made in house

[5] = target: T4, DR2a (DRA*0101/DRB5*0101) (Homo sapiens, UniProt P01903+Q30154); test: Competitive LOCI peptide-MHC-II binding assay, DR2a
T4 construct: DRA*01011-181LZFos; DRB5*01011-190LZJunBSP; made in house

[6] = target: T4, DR2a (DRA*0101/DRB5*0101); test: Direct LOCI peptide-MHC-II binding assay, DR2a
DR4 (DRA*0101/DRB1*0401) = target: T5, DR4 (DRA*0101/DRB1*0401) (Homo sapiens, UniProt P01903+P01911, A100K/A169T/F76Y/I96L/K127E/L162R/M171V/N62H/P40V/Q125Y/R42H/S133A/S149N/S66Y/V115G/V209L/W38E); test: Direct LOCI peptide-MHC-II binding assay, DR4
T5 construct: DRA*01011-181LZFos; DRB1*04011-190LZJunBSP; made in house

DR2 (DR2a) = target: T6, DR2 (DR2a) (Homo sapiens, UniProt P01903+Q30154); test: ELISA-based peptide-MHC class II binding assay, DR2
T6 construct: DR2a: DRA*0101_1–181/DRB5*0101_1–190; made in house

DR4 = target: T7, DR4 (Homo sapiens, UniProt P01903+P01911); test: ELISA-based peptide-MHC class II binding assay, DR4
T7 construct: made in house

DR3 (DRA*0101/DRB1*0301) = target: T8, DR3 (DRA*0101/DRB1*0301) (Homo sapiens, UniProt P01903+P01911, A100K/A102G/A103R/A169T/F55Y/I96L/K41T/L162R/M171V/P40S/Q125H/Q178H/Q39Y/R42S/S66N/T106N/T262R/W38E/Y61H); test: Direct LOCI peptide-MHC-II binding assay, DR3
T8 construct: DRA*01011-181LZFos; DRB1*03011-190LZJunBSP; made in house

DR1 (DRA*0101/DRB1*0101) = DR1 (DRA*0101/DRB1*0101) (Homo sapiens, UniProt P01903+P01911, A100R/D57E/F55L/F60I/F76Y/I96L/L162R/M171V/P40L/Q125E/R42F/V115G/Y59C); test: Competitive peptide-HLA-DR1 binding assay, radioactive spun column
I-E^d = target: T9, I-E^d (Mus musculus, UniProt P01904+P01915); test: Direct LOCI peptide-MHC-II binding assay, I-E^d
T9 construct: I-E^dA1-191LZFos; I-E^dB1-198LZJunBSP; made in house

DR1 [7] = target: T1, DR1; test: biochemical; format: binding
[8] = refolding buffer pH 8 without glycerol, 3 nM 125I YHA306-318, 80 nM DR1
[9] = pH 7, 48 h 18°C, read-out: DRB3*0301 affinity
[10] = pH 7, 48 h 18°C, read-out: DP401 affinity
[11] = pH 6-7.5, 48 h 18°C, read-out: DRB1*0813 affinity
[12] = pH 6-7.5, 48 h 18°C, read-out: DR2a Komp IC50
[13] = pH 6, 48 h 18°C, read-out: DR2a pH6 affinity
[14] = pH 6-7.5, 48 h 18°C, read-out: DR4 affinity
[15] = pH 6-7, 48 h 18°C, read-out: DR3 affinity
[16] = 48 h 18°C, read-out: I-E^D affinity

For `CCC(C)O` (stereo not drawn) [2-Butanol], which “Harmfull (to DR1 refolding)” value (DR1 [1]) is on record?
Its value is “Yes”.

And the “additive concentration at 50 % signal reduction” value (DR1 [1]; [8])?
The value was 2.5 Vol %.

For `CCCCCCCCO[C@@H]1O[C@H](CO)[C@@H](O)[C@H](O)[C@H]1O` [Beta octyl glucoside], which “Harmfull (to DR1 refolding)” value (DR1 [1]) is on record?
The value was “No”.

And the “Ok up to” value (DR1 [1]; [8])?
The value was “Ok up to 0.5 w/w %”.

For `CSCC[C@H](NC(=O)[C@@H]1CCCN1C(=O)[C@H](CC(C)C)NC(=O)[C@H](C)NC(=O)[C@H](CCC(N)=O)NC(=O)[C@H](CCSC)NC(=O)[C@H](CC(C)C)NC(=O)[C@H](CC(C)C)NC(=O)[C@@H]1CCCN1C(=O)[C@@H](NC(=O)[C@H](C)NC(=O)[C@H](CCSC)NC(=O)[C@H](CCCNC(=N)N)NC(=O)[C@H](CCSC)NC(=O)[C@H](CCCCN)NC(=O)[C@H](CO)NC(=O)[C@@H](NC(=O)[C@@H]1CCCN1C(=O)[C@H](CCCCN)NC(=O)[C@@H]1CCCN1C(=O)[C@@H]1CCCN1C(=O)[C@H](CCCCN)NC(=O)[C@@H]1CCCN1C(=O)[C@H](CC(C)C)NC(=O)[C@@H](N)Cc1ccc(O)cc1)C(C)C)[C@@H](C)O)C(=O)O` [CLIP], which Kd ([2]; read-out: DRB3*0301 affinity) is on record?
Its Kd is 1 nM.

What about the Kd ([3]; read-out: DP401 affinity) of the same compound?
Its Kd is 4 nM.

And the Kd ([4]; read-out: DRB1*0813 affinity)?
The Kd was 2 nM.

What about the IC50 ([5]; competitive LOCI, 4 nM biotin-PEG-HA306–318 agonist, β chain without biotin, α/β 13/5 nM, pH 6-7.5, L243, 48 h 18°C, average of 2–4 measurements, read-out: DR2a Komp IC50) of the same compound?
The IC50 was 1 nM.

And the Kd ([6]; read-out: DR2a pH6 affinity)?
The Kd was 1 nM.

What about the Kd (DR4 (DRA*0101/DRB1*0401); read-out: DR4 affinity) of the same compound?
Its Kd is 2 nM.

And the EC50 (DR2 (DR2a); ELISA, L243 detection, α/β 31 and 1 nM, refolding buffer pH 8, 24 h 18°C, peptide concentration in nM per legend, read-out: EC50 DR2)?
The EC50 was 0.7 nM.

And the EC50 (DR4; ELISA, L243 detection, α/β 31 and 1 nM, refolding buffer pH 8, 24 h 18°C, peptide concentration in nM per legend, read-out: EC50 DR4)?
Its EC50 is 9.7 nM.

And the Kd (DR3 (DRA*0101/DRB1*0301); read-out: DR3 affinity)?
Its Kd is 1 nM.

And the IC50 (DR1 (DRA*0101/DRB1*0101); competition with 3 nM 125I labelled (Y)HA306–318, 80 nM DR1 α and β chain, 24 h, spun column, some ligand depletion expected, read-out: IC50)?
Its IC50 is 40 nM.

Which results are given for `C[C@H](CCC(=O)O)[C@H]1CC[C@H]2[C@@H]3CC[C@@H]4C[C@H](O)CC[C@]4(C)[C@H]3C[C@H](O)[C@]12C` [DOC, Deoxycholate]?
Harmfull (to DR1 refolding) (DR1 [1]): Yes/No; Positive effect up to (harmful at higher concentrations) (DR1 [1]; [8]): Positive effect up to 0.02 % Harmfull at higher concentrations

For `OCC(O)CO` [Glycerol], which “Harmfull (to DR1 refolding)” value (DR1 [1]) is on record?
Its value is “No”.

What about the “effect on DR1 refolding (in words)” value (DR1 [1]; refolding buffer pH 8, 3 nM 125I YHA306-318, 80 nM DR1) of the same compound?
Its value is “Enhances folding in whole range tested”.

For `CC(C)O` [Isopropanol], which “Harmfull (to DR1 refolding)” value (DR1 [1]) is on record?
Its value is “Yes”.

And the “additive concentration at 50 % signal reduction” value (DR1 [1]; [8])?
Its value is 5 Vol %.

With `CCCCCCCCCCCC(=O)N(C)CC(=O)O` [N-Laurylsarcosin] as the compound, how does the “Harmfull (to DR1 refolding)” value (DR1 [1]) read?
The value was “Yes”.

And the “additive concentration at 50 % signal reduction” value (DR1 [1]; [8])?
The value was 0.01 Vol %.

How did the “Harmfull (to DR1 refolding)” value (DR1 [1]) turn out when `[Cl-].[Na+]` [NaCl, Sodium Chloride] was run?
Its value is “Yes”.

What about the “additive concentration at 50 % signal reduction” value (DR1 [1]; [8]) of the same compound?
The value was 100 mM.

Which “Harmfull (to DR1 refolding)” value (DR1 [1]) does the source give for `NC(N)=O` [Urea] here?
Its value is “Yes/No”.

What about the “Ok up to (harmful at higher concentrations)” value (DR1 [1]; [8]) of the same compound?
The value was “Ok up to 400 mM. Harmfull at higher concentrations”.

Which results are given for `Oc1ccc(Cl)cc1` [parachlorophenol (pCP), parachlorophenol]?
Harmfull (to DR1 refolding) (DR1 [1]): Yes; additive concentration at 50 % signal reduction (DR1 [1]; [8]): 4 mM

What does the source list for IQMLKNGKKIPKVEMS [Murine β2m]?
Kd [2]: 70 nM; Kd ([3]; DP401 affinity (nM)): > 5000 nM; Kd [4]: 73 nM; IC50 ([5]; DR2a Komp IC50 (nM)): 3 nM; Kd [6]: 6 nM; Kd (DR4 (DRA*0101/DRB1*0401); DR4 affinity (nM)): > 5000 nM; Kd (DR3 (DRA*0101/DRB1*0301)): 21 nM; Kd (I-E^d; I-E^D affinity (nM)): 117 nM

What does the source list for PIVQNIQGQMVHQ [HIV]?
Kd [2]: 23 nM; Kd ([3]; DP401 affinity (nM)): > 5000 nM; Kd [4]: > 5000 nM; IC50 ([5]; DR2a Komp IC50 (nM)): 852 nM; Kd [6]: 447 nM; Kd (DR4 (DRA*0101/DRB1*0401); DR4 affinity (nM)): > 5000 nM; Kd (DR3 (DRA*0101/DRB1*0301)): 471 nM; Kd (I-E^d; I-E^D affinity (nM)): > 5000 nM

Which results are given for PLKAEIAQRLEDV [Influenza]?
Kd [2]: 11 nM; Kd [3]: 2090 nM; Kd [4]: > 5000 nM; IC50 [5]: 41 nM; Kd [6]: 65 nM; Kd (DR4 (DRA*0101/DRB1*0401)): 2680 nM; Kd (DR3 (DRA*0101/DRB1*0301)): 134 nM; Kd (I-E^d): > 5000 nM

RMIAISAKV [Pox.o42.con.im. A2] was tested. Which Kd [2, 9] did it give?
Its Kd is 1260 nM.

What about the Kd [3, 10] of the same compound?
The Kd was over 5000 nM.

And the Kd [4, 11]?
Its Kd is 267 nM.

What about the IC50 [5, 12] of the same compound?
The IC50 was 1990 nM.

What about the Kd [6, 13] of the same compound?
The Kd was 1650 nM.

And the Kd (DR4 (DRA*0101/DRB1*0401); [14])?
The Kd was over 5000 nM.

And the Kd (DR3 (DRA*0101/DRB1*0301); [15])?
The Kd was 516 nM.

And the Kd (I-E^d; [16])?
Its Kd is over 5000 nM.

What does the source list for YILLKKILSSRFNQM [Plasmodium Falciparum]?
Kd [2]: 1 nM; Kd ([3]; DP401 affinity (nM)): 1 nM; Kd ([3]; KD, DP401): 0.8 nM; Kd [4]: 4 nM; IC50 ([5]; DR2a Komp IC50 (nM)): 2 nM; IC50 ([5]; IC50, DR2a inhibition assay): 0.6 nM; Kd [6]: 4 nM; Kd (DR4 (DRA*0101/DRB1*0401); DR4 affinity (nM)): 94 nM; Kd (DR4 (DRA*0101/DRB1*0401); KD, DR4): 133 nM; Kd (DR3 (DRA*0101/DRB1*0301)): 32 nM; Kd (I-E^d; I-E^D affinity (nM)): 20 nM; Kd (I-E^d; KD, I-E^d): 14 nM

Which results are given for YKYVKQNTLKLAT [HA306-318]?
Kd [2, 9]: 4 nM; Kd [3, 10]: > 5000 nM; Kd [4, 11]: 11 nM; IC50 [5, 12]: 2 nM; Kd [6, 13]: 10 nM; Kd (DR4 (DRA*0101/DRB1*0401); [14]): 8 nM; EC50 (DR2 (DR2a)): 1.2 nM; EC50 (DR1 [7]): 2.2 nM; EC50 (DR4): 43.1 nM; Kd (DR3 (DRA*0101/DRB1*0301); [15]): 13 nM; IC50 (DR1 (DRA*0101/DRB1*0101)): 34 nM; Kd (I-E^d; [16]): 25 nM
